Patent US20100003217A1, “Compounds and Pharmaceutical Compositions for the Treatment of Viral Infections” (priority 2008, published 2010)
Several values for one entry are separate records, joined by “and”; a condition that tells them apart may be missing. Identical values can stand only once.

Tests used:
[1] = Metabolite profile in rat feces; assay type: in vivo, male Sprague-Dawley rats; conditions: for Percent of Dose, Feces 0-24 h: after [14C]Compound 1; for % AD / % HPLC (percent of HPLC peak area in the sample extract) / fecal component, % of the administered dose (% AD): 24 h collection; for % of the total fecal excretion / fecal component, % of the administered dose (% AD): rat feces
Method: Pooled samples were prepared for the 24 h time interval from Groups 1C and 2C by combining a fixed percentage of the total weight of each individual animal sample homogenate for each group. The aliquots were pooled in a 15-mL polypropylene centrifuge tube. To the pooled sample (approximately 3 g each), 4.5 mL of MeOH-water (70:30) was added. The sample was vortexed for one minute, sonicated for 10 minutes, and then centrifuged at 5700×g for 10 minutes. The supernatant was transferred to a tube and the total volume of the supernatant was measured. The extraction procedure was repeated two additional times. The radioactivity in each extract was determined by LSC of duplicate aliquots (20 μL each) for extraction recovery. A portion (10% of total volume) of each extract was pooled for analysis by LSC and HPLC. The combined extracts were diluted (1:4) with aqueous mobile phase and analyzed using HPLC method 1 to obtain the metabolic profile. For comparing the in vitro with the in vivo metabolism data, these same fecal samples were analyzed by HPLC method 2.
Percent of the administered dose (% AD) for parent drug and each metabolite at each collection period=(% of the total radioactivity in the sample attributed to the metabolite)*(total radioactivity expressed as % of the administered dose, recovered during the corresponding collection period).
The samples were analyzed by HPLC with radiochemical detection. The distribution of metabolites as % of the administered dose was derived from these analyses. Both pooled fecal extracts were also analyzed by HPLC method 2. Metabolites R^1, R^2, R^3, R^4, R^5, R^6, R^7 and R^8 were characterized based on retention time.

[2] = tested on: primary hepatocytes (human, monkey, rat); assay: Primary hepatocytes, statements pooled over human, monkey and rat; assay type: in vitro ADME
Method: Primary hepatocytes: Freshly isolated cells from animal and human liver were obtained in suspension on ice. Cells were pelleted by centrifugation at 70-75×g (rat) or 95-90×g (monkey and human) and resuspended at 0.8 million cells per mL of platting medium (William's E supplemented with 5% FBS, 0.5% penicillin-streptomycin, 1% L-glutamine, 4 μg/mL insulin and 1 μM dexamethasone). Multi-well collagen I-coated plates (rat tail collagen type I; 12- or 6-well) were then seeded by addition of 1 mL (12-well; 0.8 million cells/well) or 2 mL (6-well; 1.6 million cells/well) of cell suspension. […]
Cellular extracts were prepared by centrifugation at 16,000 RCF using an Eppendorf microcentrifuge (Eppendorf, Model 5415D) for 10 min to remove cellular debris. An aliquot of 5-10 μL of the supernatant was added to 5 mL of EcoLite™ (MP, Irvine, Calif.) liquid scintillation cocktail and radioactivity measured by liquid scintillation counting (LSC) using a Beckman Coulter LS6500 multipurpose liquid scintillation counter (Beckman Instruments, Fullerton, Calif.). […] Prior to HPLC analysis (described below), radioactivity of the concentrated extracts was measured by LSC using 5 μL aliquots. Extraction recovery was then determined by comparing total radioactivity in extracts before and after drying. […] Samples with poor recovery (<85%) were re-analyzed when possible. […]

[3] = group 1C (IV) pooled fecal extract
[4] = group 2C (PO) pooled fecal extract

metabolites in the incubation medium following incubation with [^14C]-2′-C-methyl guanosine ([2]; primary hepatocytes, 10 μM or 1 μM)	% of the total intracellular radioactivity ([2]; extracts of primary hepatocytes, all three species, 4-24 hours, [^14C]-Compound 1)	SMILES	Total excretion (% AD), feces ([1]; IV (1C)) [% AD]	Percent of Dose, Feces 0-24 h ([1]; IV)	Percent of Dose, Feces 0-24 h ([1]; Oral)	Total excretion (% AD), feces ([1]; PO (2C)) [% AD]	% AD [1, 3] [% AD]	% HPLC (percent of HPLC peak area in the sample extract) [1, 3] [%]	% AD [1, 4] [% AD]	% HPLC (percent of HPLC peak area in the sample extract) [1, 4] [%]	% of the total fecal excretion ([1]; IV dose 50 mg/kg) [%]	fecal component, % of the administered dose (% AD) ([1]; IV dose 50 mg/kg, 50 mg/kg)	% of the total fecal excretion ([1]; PO dose 100 mg/kg) [%]	fecal component, % of the administered dose (% AD) ([1]; PO dose 100 mg/kg, 100 mg/kg)
		CC(C)(CO)C(=O)SCCOP(=O)(NCc1ccccc1)OC[C@H]1O[C@@H](n2cnc3c(=O)[nH]c(N)nc32)[C@](C)(O)[C@@H]1O (mixture of isomers) [Compound 1, 3-hydroxy-2,2-dimethyl-thiopropionic acid S-(2-{[(2R,3R,4R,5R)-5-(2-amino-6-oxo-1,6-dihydro-purin-9-yl)-3,4-dihydroxy-4-methyl-tetrahydro-furan-2-ylmethoxy]-benzylamino-phosphoryloxy}-ethyl) ester]	19.7	19.7% of Dose	65.6% of Dose	65.6	19.7	50.6	65.6	71.9	50.6	19.7 % AD and 20 % AD	71.9	65.6 % AD and 66 % AD
No metabolites were observed		C[C@@]1(O)[C@H](O)[C@@H](CO)O[C@H]1n1cnc2c(=O)[nH]c(N)nc21 [2′-C-methyl guanosine, 9-(2-C-methyl-β-D-ribofuranosyl)guanine, reference compound]	16.0	16.0% of Dose	25.6% of Dose	25.6	16.0	41.0	25.6	28.1	41.0	16 % AD	28.1	25.6 % AD and 26 % AD
	60-81%	C[C@@]1(O)[C@H](O)[C@@H](COP(=O)(O)OP(=O)(O)OP(=O)(O)O)O[C@H]1n1cnc2c(=O)[nH]c(N)nc21 [Compound 7, [(2R)-2-methyl-β-D-ribofuranosyl]guanine 5′-triphosphate]												
